Patent publication US20250376461A1, “INDAZOLE DERIVATIVES FOR TREATING TRPM3-MEDIATED DISORDERS” (Katholieke Universiteit Leuven, priority 2022, published 2025)

What follows are compounds tested against T1, mouse TRPM3α2 (mTRPM3) ion channel (Mus musculus, UniProt J9SQF3) (assay: TRPM3 ion channel driven Ca2+ uptake, Fluo-4 AM assay, mTRPM3alpha2 overexpressing flip-in HEK293 cells stimulated with pregnenolone sulfate (50 μM)). Conditions: mTRPM3 overexpressing HEK293 cells stimulated with pregnenolone sulfate (50 μM), activity ranges A, B, C.
T1 construct: expressed in transfected cells; host or cells: flip-in HEK293
Type: cell-based
How it was run: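 Ca2+ influx via mouse TRPM3α2 was opened with pregnenolone sulfate (50 μM) and tracked by Fluo-4 AM fluorescence at 485/535 nm, read directly after adding about 2000 stably transfected HEK293 cells per well to compound. IC50 values come from percent inhibition scaled to vehicle and positive-control inhibitor signals.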

T1 sequence (J9SQF3 1-1709 isoform J9SQF3-12): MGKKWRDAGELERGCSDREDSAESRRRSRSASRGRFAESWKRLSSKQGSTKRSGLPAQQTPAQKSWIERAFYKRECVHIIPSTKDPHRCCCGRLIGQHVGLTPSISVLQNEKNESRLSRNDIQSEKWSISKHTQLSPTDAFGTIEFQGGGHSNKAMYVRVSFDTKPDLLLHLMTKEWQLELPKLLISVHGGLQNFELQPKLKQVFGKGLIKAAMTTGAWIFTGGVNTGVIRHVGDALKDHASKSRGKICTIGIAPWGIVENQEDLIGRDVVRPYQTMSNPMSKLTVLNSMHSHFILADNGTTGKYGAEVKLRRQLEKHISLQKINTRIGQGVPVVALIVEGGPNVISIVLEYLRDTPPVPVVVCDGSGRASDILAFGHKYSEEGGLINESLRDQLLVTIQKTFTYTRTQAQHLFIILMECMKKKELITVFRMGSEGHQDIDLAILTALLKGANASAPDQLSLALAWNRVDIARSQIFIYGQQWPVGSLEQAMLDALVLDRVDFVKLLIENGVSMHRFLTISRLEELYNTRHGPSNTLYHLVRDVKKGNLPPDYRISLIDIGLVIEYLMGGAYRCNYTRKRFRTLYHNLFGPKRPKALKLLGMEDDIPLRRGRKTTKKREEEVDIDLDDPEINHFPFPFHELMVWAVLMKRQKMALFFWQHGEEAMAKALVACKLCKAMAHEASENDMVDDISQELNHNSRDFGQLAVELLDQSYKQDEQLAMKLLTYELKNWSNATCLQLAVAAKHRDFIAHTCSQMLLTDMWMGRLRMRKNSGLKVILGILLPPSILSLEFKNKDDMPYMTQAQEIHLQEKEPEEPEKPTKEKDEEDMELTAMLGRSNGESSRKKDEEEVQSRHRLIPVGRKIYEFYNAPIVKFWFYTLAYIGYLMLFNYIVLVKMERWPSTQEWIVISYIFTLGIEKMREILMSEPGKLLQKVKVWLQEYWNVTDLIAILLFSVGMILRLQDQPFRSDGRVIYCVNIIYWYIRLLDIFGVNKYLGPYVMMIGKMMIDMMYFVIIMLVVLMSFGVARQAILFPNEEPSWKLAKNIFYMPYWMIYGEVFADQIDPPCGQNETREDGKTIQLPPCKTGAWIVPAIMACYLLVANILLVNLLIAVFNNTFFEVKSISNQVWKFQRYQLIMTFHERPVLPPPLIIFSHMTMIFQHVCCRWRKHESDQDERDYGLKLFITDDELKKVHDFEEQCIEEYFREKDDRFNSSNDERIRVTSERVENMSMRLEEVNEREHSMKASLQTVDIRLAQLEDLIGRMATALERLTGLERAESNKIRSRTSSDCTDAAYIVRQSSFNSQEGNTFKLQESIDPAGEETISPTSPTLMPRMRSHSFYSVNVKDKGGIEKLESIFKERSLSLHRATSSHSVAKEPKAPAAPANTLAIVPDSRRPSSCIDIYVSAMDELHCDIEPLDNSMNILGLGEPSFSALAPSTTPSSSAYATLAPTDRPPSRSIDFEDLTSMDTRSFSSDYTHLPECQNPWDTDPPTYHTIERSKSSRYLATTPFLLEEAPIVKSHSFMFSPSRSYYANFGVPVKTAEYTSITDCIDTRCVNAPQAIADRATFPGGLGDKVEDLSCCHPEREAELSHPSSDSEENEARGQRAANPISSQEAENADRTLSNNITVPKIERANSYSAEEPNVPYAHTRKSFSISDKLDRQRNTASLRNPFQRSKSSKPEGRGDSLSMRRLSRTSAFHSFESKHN

SMILES | IC50 [µM]
Cc1ncsc1COc1ccc2nn(C)c(C(=O)NC3(CO)CCC3)c2c1 [Cpd 043, N-[1-(hydroxymethyl)cyclobutyl]-2-methyl-5-[(4-methyl-1,3-thiazol-5-yl)methoxy]-2H-indazole-3-carboxamide] | 1 to 20
Cn1nccc1COc1ccc2nn(C)c(C(=O)NC3(CO)CCC3)c2c1 [Cpd 044, N-[1-(hydroxymethyl)cyclobutyl]-2-methyl-5-[(1-methyl-1H-pyrazol-5-yl)methoxy]-2H-indazole-3-carboxamide] | 1 to 20
Cn1nc2ccc(OCc3ccccc3)cc2c1C(=O)NCCN1CCOC1=O [Cpd 045, 5-(benzyloxy)-2-methyl-N-[2-(2-oxo-1,3-oxazolidin-3-yl)ethyl]-2H-indazole-3-carboxamide] | > 20
CN(C)C1(CNC(=O)c2c3cc(OCc4ccnn4C)ccc3nn2C)CCC1 [Cpd 046, N-{[1-(dimethylamino)cyclobutyl]methyl}-2-methyl-5-[(1-methyl-1H-pyrazol-5-yl)methoxy]-2H-indazole-3-carboxamide] | 1 to 20
Cc1ncsc1COc1ccc2nn(C)c(C(=O)NC3(CO)CC3)c2c1 [Cpd 047, N-[1-(hydroxymethyl)cyclopropyl]-2-methyl-5-[(4-methyl-1,3-thiazol-5-yl)methoxy]-2H-indazole-3-carboxamide] | 1 to 20
Cc1ncsc1COc1ccc2nn(C)c(C(=O)NC3(CCO)CCC3)c2c1 [Cpd 048, N-[1-(2-hydroxyethyl)cyclobutyl]-2-methyl-5-[(4-methyl-1,3-thiazol-5-yl)methoxy]-2H-indazole-3-carboxamide] | 1 to 20
Cn1nccc1COc1ccc2nn(C)c(C(=O)NCC(C)(C)N3CCOCC3)c2c1 [Cpd 049, 2-methyl-5-[(1-methyl-1H-pyrazol-5-yl)methoxy]-N-[2-methyl-2-(morpholin-4-yl)propyl]-2H-indazole-3-carboxamide] | > 20
Cn1nccc1COc1ccc2nn(C)c(C(=O)NC3CCN(CC(F)(F)F)C3)c2c1 (stereo not shown) [Cpd 050, 2-methyl-5-[(1-methyl-1H-pyrazol-5-yl)methoxy]-N-[1-(2,2,2-trifluoroethyl)pyrrolidin-3-yl]-2H-indazole-3-carboxamide] | 1 to 20
Cn1nc2ccc(OCc3ccccc3)cc2c1C(=O)NC1(CCO)CCC1 [Cpd 051, 5-(benzyloxy)-N-[1-(2-hydroxyethyl)cyclobutyl]-2-methyl-2H-indazole-3-carboxamide] | 1 to 20
Cc1ncsc1COc1ccc2nn(C)c(C(=O)NCCN3CCOC3=O)c2c1 [Cpd 053, 2-methyl-5-[(4-methyl-1,3-thiazol-5-yl)methoxy]-N-[2-(2-oxo-1,3-oxazolidin-3-yl)ethyl]-2H-indazole-3-carboxamide] | > 20
Cn1nc2ccc(OCc3cccnc3C(F)(F)F)cc2c1C(=O)NCC1CCC(=O)N1 (stereo not shown) [Cpd 054, 2-methyl-N-[(5-oxopyrrolidin-2-yl)methyl]-5-{[2-(trifluoromethyl)pyridin-3-yl]methoxy}-2H-indazole-3-carboxamide] | 1 to 20
Cn1nccc1COc1ccc2nn(C)c(C(=O)NCCN3CCOC3=O)c2c1 [Cpd 055, 2-methyl-5-[(1-methyl-1H-pyrazol-5-yl)methoxy]-N-[2-(2-oxo-1,3-oxazolidin-3-yl)ethyl]-2H-indazole-3-carboxamide] | 1 to 20
Cc1ncsc1COc1ccc2nn(C)c(C(=O)NC3CCN(CC(F)(F)F)C3)c2c1 (stereo not shown) [Cpd 057, 2-methyl-5-[(4-methyl-1,3-thiazol-5-yl)methoxy]-N-[1-(2,2,2-trifluoroethyl)pyrrolidin-3-yl]-2H-indazole-3-carboxamide] | 1 to 20
Cn1nccc1COc1ccc2nn(C)c(C(=O)NC3(CO)CCOCC3)c2c1 [Cpd 058, N-[4-(hydroxymethyl)oxan-4-yl]-2-methyl-5-[(1-methyl-1H-pyrazol-5-yl)methoxy]-2H-indazole-3-carboxamide] | > 20
Cn1nc2ccc(OCc3ccccc3)cc2c1C(=O)NC1CCN(CC(F)(F)F)C1 (stereo not shown) [Cpd 060, 5-(benzyloxy)-2-methyl-N-[1-(2,2,2-trifluoroethyl)pyrrolidin-3-yl]-2H-indazole-3-carboxamide] | 1 to 20
Cn1nccc1COc1ccc2nn(C)c(C(=O)NC3(C(N)=O)CCC3)c2c1 [Cpd 061, N-(1-carbamoylcyclobutyl)-2-methyl-5-[(1-methyl-1H-pyrazol-5-yl)methoxy]-2H-indazole-3-carboxamide] | 1 to 20
Cn1nccc1COc1ccc2nn(C)c(C(=O)NC3CCNC3=O)c2c1 (stereo not shown) [Cpd 062, 2-methyl-5-[(1-methyl-1H-pyrazol-5-yl)methoxy]-N-(2-oxopyrrolidin-3-yl)-2H-indazole-3-carboxamide] | > 20
Cc1ncsc1COc1ccc2nn(C)c(C(=O)NCC3CCC(=O)N3)c2c1 (stereo not shown) [Cpd 063, 2-methyl-5-[(4-methyl-1,3-thiazol-5-yl)methoxy]-N-[(5-oxopyrrolidin-2-yl)methyl]-2H-indazole-3-carboxamide] | 1 to 20
Cc1ncsc1COc1ccc2nn(C)c(C(=O)NC3CCNC3=O)c2c1 (stereo not shown) [Cpd 064, 2-methyl-5-[(4-methyl-1,3-thiazol-5-yl)methoxy]-N-(2-oxopyrrolidin-3-yl)-2H-indazole-3-carboxamide] | 1 to 20

SMILES | IC50 [µM]
Cn1nc2ccc(OCc3cccnc3C(F)(F)F)cc2c1C(=O)NC1(CCO)CCC1 [Cpd 065, N-[1-(2-hydroxyethyl)cyclobutyl]-2-methyl-5-{[2-(trifluoromethyl)pyridin-3-yl]methoxy}-2H-indazole-3-carboxamide] | 1 to 20
Cn1nc2ccc(OCc3ccccc3)cc2c1C(=O)NCC1CCC(=O)N1 (stereo not shown) [Cpd 066, 5-(benzyloxy)-2-methyl-N-[(5-oxopyrrolidin-2-yl)methyl]-2H-indazole-3-carboxamide] | > 20
Cn1nccc1COc1ccc2nn(C)c(C(=O)NC3(CO)CC3)c2c1 [Cpd 067, N-[1-(hydroxymethyl)cyclopropyl]-2-methyl-5-[(1-methyl-1H-pyrazol-5-yl)methoxy]-2H-indazole-3-carboxamide] | > 20
Cn1nc2ccc(OCc3cccnc3C(F)(F)F)cc2c1C(=O)NCC(C)(C)N1CCOCC1 [Cpd 068, 2-methyl-N-[2-methyl-2-(morpholin-4-yl)propyl]-5-{[2-(trifluoromethyl)pyridin-3-yl]methoxy}-2H-indazole-3-carboxamide] | 1 to 20
Cn1nccc1COc1ccc2nn(C)c(C(=O)NCC3CCC(=O)N3)c2c1 (stereo not shown) [Cpd 069, 2-methyl-5-[(1-methyl-1H-pyrazol-5-yl)methoxy]-N-[(5-oxopyrrolidin-2-yl)methyl]-2H-indazole-3-carboxamide] | > 20
Cc1ncsc1COc1ccc2nn(C)c(C(=O)NC3(C(N)=O)CCC3)c2c1 [Cpd 070, N-(1-carbamoylcyclobutyl)-2-methyl-5-[(4-methyl-1,3-thiazol-5-yl)methoxy]-2H-indazole-3-carboxamide] | < 1
CN1CCC(NC(=O)c2c3cc(OCc4ccnn4C)ccc3nn2C)C1 (stereo not shown) [Cpd 071, 2-methyl-5-[(1-methyl-1H-pyrazol-5-yl)methoxy]-N-(1-methylpyrrolidin-3-yl)-2H-indazole-3-carboxamide] | 1 to 20
Cc1ncsc1COc1ccc2nn(C)c(C(=O)NCC3(N(C)C)CCC3)c2c1 [Cpd 072, N-{[1-(dimethylamino)cyclobutyl]methyl}-2-methyl-5-[(4-methyl-1,3-thiazol-5-yl)methoxy]-2H-indazole-3-carboxamide] | 1 to 20
Cn1nc2ccc(OCc3cccnc3C(F)(F)F)cc2c1C(=O)NCCN1CCOC1=O [Cpd 073, 2-methyl-N-[2-(2-oxo-1,3-oxazolidin-3-yl)ethyl]-5-{[2-(trifluoromethyl)pyridin-3-yl]methoxy}-2H-indazole-3-carboxamide] | 1 to 20
Cn1nc2ccc(OCc3ccccc3)cc2c1C(=O)NC1(CO)CCOCC1 [Cpd 074, 5-(benzyloxy)-N-[4-(hydroxymethyl)oxan-4-yl]-2-methyl-2H-indazole-3-carboxamide] | 1 to 20
Cc1ncsc1COc1ccc2nn(C)c(C(=O)NC3CCN(C)C3)c2c1 (stereo not shown) [Cpd 075, 2-methyl-5-[(4-methyl-1,3-thiazol-5-yl)methoxy]-N-(1-methylpyrrolidin-3-yl)-2H-indazole-3-carboxamide] | 1 to 20
Cn1nc2ccc(OCc3cccnc3C(F)(F)F)cc2c1C(=O)NC(C)(C)CO [Cpd 076, N-(1-hydroxy-2-methylpropan-2-yl)-2-methyl-5-{[2-(trifluoromethyl)pyridin-3-yl]methoxy}-2H-indazole-3-carboxamide] | 1 to 20
Cn1nc2ccc(OCc3cccnc3C(F)(F)F)cc2c1C(=O)NC1CCN(CC(F)(F)F)C1 (stereo not shown) [Cpd 077, 2-methyl-N-[1-(2,2,2-trifluoroethyl)pyrrolidin-3-yl]-5-{[2-(trifluoromethyl)pyridin-3-yl]methoxy}-2H-indazole-3-carboxamide] | 1 to 20
CN(C)C1(CNC(=O)c2c3cc(OCc4ccccc4)ccc3nn2C)CCC1 [Cpd 078, 5-(benzyloxy)-N-{[1-(dimethylamino)cyclobutyl]methyl}-2-methyl-2H-indazole-3-carboxamide] | 1 to 20
Cn1nccc1COc1ccc2nn(C)c(C(=O)NC3(CCO)CCC3)c2c1 [Cpd 079, N-[1-(2-hydroxyethyl)cyclobutyl]-2-methyl-5-[(1-methyl-1H-pyrazol-5-yl)methoxy]-2H-indazole-3-carboxamide] | > 20
CN1CC(NC(=O)c2c3cc(OCc4cccnc4C(F)(F)F)ccc3nn2C)C(F)(F)C1 (stereo not shown) [Cpd 081, N-(4,4-difluoro-1-methylpyrrolidin-3-yl)-2-methyl-5-{[2-(trifluoromethyl)pyridin-3-yl]methoxy}-2H-indazole-3-carboxamide] | 1 to 20
C[C@H](NC(=O)c1c2cc(OCc3ccccn3)ccc2nn1C)C(N)=O [Cpd 082, (2S)-2-({2-methyl-5-[(pyridin-2-yl)methoxy]-2H-indazol-3-yl}formamido)propanamide] | 1 to 20
C[C@@H](NC(=O)c1c2cc(OCc3ccccn3)ccc2nn1C)C(N)=O [Cpd 083, (2R)-2-({2-methyl-5-[(pyridin-2-yl)methoxy]-2H-indazol-3-yl}formamido)propanamide] | 1 to 20
